# US20250230193A1, “CYCLIC COMPOUND HAVING SELECTIVE KRAS INHIBITORY EFFECT ON HRAS AND NRAS” (CHUGAI SEIYAKU KABUSHIKI KAISHA, priority 2022, published 2025)
# Where a SMILES comes first, the peptide text is derived from it. Bridges are numbered along the chain shown (N, C = ends). [ ]: non-standard residue; d: D form. The star is where a group is joined. hPhe(3-Cl-4-CF3) = N[C@@H](CCc1ccc(C(F)(F)F)c(Cl)c1)C(=O)O; NPrPhe(4-CF3) = CCCN[C@@H](Cc1ccc(C(F)(F)F)cc1)C(=O)O; NEtPhe(4-Me) = CCN[C@@H](Cc1ccc(C)cc1)C(=O)O; NMeGly(cPent) = CN[C@H](C(=O)O)C1CCCC1; Pro(4S-Me) = C[C@@H]1CN[C@H](C(=O)O)C1; NMeD = CN[C@@H](CC(=O)O)C(=O)O; NMeL = CN[C@@H](CC(C)C)C(=O)O; Morpholide = C1CN(*)CCO1; Ac5c = NC1(C(=O)O)CCCC1; Aze = O=C(O)[C@@H]1CCN1; NEtG = CCNCC(=O)O; Sar = CNCC(=O)O
# How the values were obtained:
# [1] = molecular target: GDP-bound HRAS wild-type protein (Homo sapiens, UniProt P01112); assay: Binding to HRAS by surface plasmon resonance (SPR), Single Cycle Kinetics; details: for HRAS/KRAS (ratio of KD value for HRAS to KD value for KRAS) / HRAS/KRAS (ratio of KD value with respect to HRAS to KD value with respect to KRAS): GDP-bound HRAS wild-type vs GDP-bound KRAS wild-type
# Sequence of GDP-bound HRAS wild-type protein (P01112 whole entry): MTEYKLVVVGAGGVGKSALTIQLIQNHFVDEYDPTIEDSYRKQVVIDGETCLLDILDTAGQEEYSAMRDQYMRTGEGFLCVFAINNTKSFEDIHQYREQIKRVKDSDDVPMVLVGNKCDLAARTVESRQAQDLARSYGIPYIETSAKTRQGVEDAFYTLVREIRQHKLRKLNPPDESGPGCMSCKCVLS
# [2] = molecular target: GDP-bound NRAS wild-type protein (Homo sapiens, UniProt P01111); assay: Binding to NRAS by surface plasmon resonance (SPR), Single Cycle Kinetics; details: for NRAS/KRAS (ratio of KD value for NRAS to KD value for KRAS) / NRAS/KRAS (ratio of KD value with respect to NRAS to KD value with respect to KRAS): GDP-bound NRAS wild-type vs GDP-bound KRAS wild-type
# Sequence of GDP-bound NRAS wild-type protein (P01111 whole entry): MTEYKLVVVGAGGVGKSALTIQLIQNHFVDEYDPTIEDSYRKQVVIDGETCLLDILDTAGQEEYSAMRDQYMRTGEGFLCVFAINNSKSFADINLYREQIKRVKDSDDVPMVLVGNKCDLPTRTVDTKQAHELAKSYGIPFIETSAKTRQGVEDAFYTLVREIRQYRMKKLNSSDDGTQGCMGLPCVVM
# [3] = SPR, GDP-bound wild-type proteins
smiles,measurement,setting,value
CC[C@H](C)[C@@H]1NC(=O)[C@H](CC(C)C)N(C)C(=O)C[C@@H](C(=O)N2CCOCC2)N(C)C(=O)[C@H](C2CCCC2)N(C)C(=O)C2(CCCC2)NC(=O)[C@@H]2CCCN2C(=O)[C@H](CCc2ccc(C(F)(F)F)c(Cl)c2)NC(=O)CN(C)C(=O)[C@H](Cc2ccc(C)cc2)N(CC)C(=O)CN(CC)C(=O)CN(C)C1=O [PP0027] ([NMeL]I[Sar][NEtG][NEtPhe(4-Me)][Sar][hPhe(3-Cl-4-CF3)]P[Ac5c][NMeGly(cPent)][NMeD]-Morpholide; lactam N-11),HRAS/KRAS (ratio of KD for GDP-bound HRAS wild-type to KD for KRAS),[1]; SPR,C (A compound having a KD ratio of 0.1 or more and less than 3 is denoted as C)
same,NRAS/KRAS (ratio of KD for GDP-bound NRAS wild-type to KD for KRAS),[2]; SPR,C (A compound having a KD ratio of 0.1 or more and less than 3 is denoted as C)
CC[C@H](C)[C@@H]1NC(=O)[C@H](COC)N(C)C(=O)C[C@@H](C(=O)N2CCCCC2)N(C)C(=O)[C@H](C2CCCC2)N(C)C(=O)C2(CC(C)(C)C2)NC(=O)[C@@H]2C[C@@H](OC(C)C)CN2C(=O)[C@H](CCc2cc(F)c(C(F)(F)F)c(F)c2)NC(=O)CN(C)C(=O)[C@H](Cc2ccc(C(F)(F)F)cc2)N2CC/C=C\C[C@@H](C2=O)N(C)C(=O)CN(C2CC2)C1=O [PP2667],HRAS/KRAS (ratio of KD value with respect to GDP-bound HRAS wild-type protein to KD value with respect to KRAS),[1]; class symbols,A (a compound having 10 or more and less than 20 is denoted as A)
same,NRAS/KRAS (ratio of KD value with respect to GDP-bound NRAS wild-type protein to KD value with respect to KRAS),[2]; class symbols,A (a compound having 10 or more and less than 20 is denoted as A)
CCCN1C(=O)CN(C)C(=O)[C@@H]2CCCN2C(=O)[C@H]([C@@H](C)CC)NC(=O)[C@H](CC(C)C)N(C)C(=O)C[C@@H](C(=O)N2CCOCC2)N(C)C(=O)[C@H](C2CCCC2)N(C)C(=O)C2(CCCC2)NC(=O)[C@@H]2CCCN2C(=O)[C@H](CCc2ccc(C(F)(F)F)c(Cl)c2)NC(=O)CN(C)C(=O)[C@@H]1Cc1ccc(C(F)(F)F)cc1 [PP0165] ([NMeL]IP[Sar][NPrPhe(4-CF3)][Sar][hPhe(3-Cl-4-CF3)]P[Ac5c][NMeGly(cPent)][NMeD]-Morpholide; lactam N-11),HRAS/KRAS (ratio of KD for GDP-bound HRAS wild-type to KD for KRAS),[1]; SPR,B (a compound having 3 or more and less than 10 is denoted as B)
same,NRAS/KRAS (ratio of KD for GDP-bound NRAS wild-type to KD for KRAS),[2]; SPR,B (a compound having 3 or more and less than 10 is denoted as B)
CC[C@H](C)[C@@H]1NC(=O)[C@H](CC)N(C)C(=O)C[C@@H](C(=O)N(C)C)N(C)C(=O)[C@H](C2CCCC2)N(C)C(=O)C2(CC(C)(C)C2)NC(=O)[C@@H]2C[C@H](C)CN2C(=O)[C@H](CCc2ccc(C(F)(F)F)c(OC)c2)NC(=O)CN(C)C(=O)[C@H](Cc2ccc(C)cc2)N2CC/C=C\C[C@@H](C2=O)N(C)C(=O)CN(C)C1=O [PP1836],HRAS/KRAS (ratio of KD value for HRAS to KD value for KRAS),[1]; SPR,B (a compound having 3 or more and less than 10 is denoted as B)
same,NRAS/KRAS (ratio of KD value for NRAS to KD value for KRAS),[2]; SPR,A (a compound having 10 or more and less than 20 is denoted as A)
CC[C@H](C)[C@@H]1NC(=O)[C@H](CC)N(C)C(=O)C[C@@H](C(=O)N(C)C)N(C)C(=O)[C@H](C2CCCC2)N(C)C(=O)C2(CCC2)NC(=O)[C@@H]2C[C@H](F)CN2C(=O)[C@H](CCc2cc(F)c(C(F)(F)F)c(F)c2)NC(=O)CN(C)C(=O)[C@H](Cc2ccc(C(F)(F)F)cc2)N2CC/C=C\C[C@@H](C2=O)N(C)C(=O)CN(C)C1=O [PP1132],HRAS/KRAS (ratio of KD value with respect to HRAS to KD value with respect to KRAS),[1]; SPR,B (a compound having 3 or more and less than 10 is denoted as B)
same,NRAS/KRAS (ratio of KD value with respect to NRAS to KD value with respect to KRAS),[2]; SPR,A (a compound having 10 or more and less than 20 is denoted as A)
CCCN1C(=O)[C@@H]2CCN2C(=O)CN(C)C(=O)[C@H]([C@@H](C)CC)NC(=O)[C@H](CC(C)C)N(C)C(=O)C[C@@H](C(=O)N2CCOCC2)N(C)C(=O)[C@H](C2CCCC2)N(C)C(=O)C2(CCCC2)NC(=O)[C@@H]2C[C@H](C)CN2C(=O)[C@H](CCc2ccc(C(F)(F)F)c(Cl)c2)NC(=O)CN(C)C(=O)[C@@H]1Cc1ccc(C(F)(F)F)cc1 [PP0457] ([NMeL]I[Sar][Aze][NPrPhe(4-CF3)][Sar][hPhe(3-Cl-4-CF3)][Pro(4S-Me)][Ac5c][NMeGly(cPent)][NMeD]-Morpholide; lactam N-11),HRAS/KRAS (ratio of KD value with respect to GDP-bound HRAS wild-type protein to KD value with respect to KRAS),[1]; SPR,B (a compound having 3 or more and less than 10 is denoted as B)
same,NRAS/KRAS (ratio of KD value with respect to GDP-bound NRAS wild-type protein to KD value with respect to KRAS),[2]; SPR,C (A compound having a KD ratio of 0.1 or more and less than 3 is denoted as C)
CCC[C@H]1C(=O)N[C@@H]([C@@H](C)CC)C(=O)N(C)CC(=O)N(C)[C@H]2C/C=C\CCN(C2=O)[C@@H](Cc2ccc(C)cc2)C(=O)N(C)CC(=O)N[C@@H](CCc2ccc(C(F)(F)F)c(OC)c2)C(=O)N2C[C@H](C)C[C@H]2C(=O)NC2(CC(C)(C)C2)C(=O)N(C)[C@@H](C2CCCC2)C(=O)N(C)[C@H](C(=O)N(C)CC)CC(=O)N1C [PP1891],HRAS/KRAS (ratio of KD value for HRAS to KD value for KRAS),[1]; SPR,A (a compound having 10 or more and less than 20 is denoted as A)
same,NRAS/KRAS (ratio of KD value for NRAS to KD value for KRAS),[2]; SPR,A (a compound having 10 or more and less than 20 is denoted as A)
CC[C@H](C)[C@@H]1NC(=O)[C@H](CC)N(C)C(=O)C[C@@H](C)N(C)C(=O)[C@H](C2CCCC2)N(C)C(=O)C2(CCCC2)NC(=O)[C@@H]2CCCN2C(=O)[C@H](CCc2cc(F)c(C(F)(F)F)c(F)c2)NC(=O)CN(C)C(=O)[C@H](Cc2ccc(C(F)(F)F)cc2)N2CC/C=C\C[C@@H](C2=O)N(C)C(=O)CN(C)C1=O [PP1101],HRAS/KRAS (ratio of KD value with respect to HRAS to KD value with respect to KRAS),[1]; SPR,B (a compound having 3 or more and less than 10 is denoted as B)
same,NRAS/KRAS (ratio of KD value with respect to NRAS to KD value with respect to KRAS),[2]; SPR,B (a compound having 3 or more and less than 10 is denoted as B)
CCC[C@H]1C(=O)N[C@@H]([C@@H](C)CC)C(=O)N(C)CC(=O)N(C)[C@H]2C/C=C\CCN(C2=O)[C@@H](Cc2ccc(C)cc2)C(=O)N(C)CC(=O)N[C@@H](CCc2cc(F)c(C(F)(F)F)c(F)c2)C(=O)N2C[C@@H](C)C[C@H]2C(=O)NC2(CCC2)C(=O)N(C)[C@@H](C2CCCC2)C(=O)N(C)[C@H](C(=O)N(C)CC)CC(=O)N1C [PP1860],HRAS/KRAS (ratio of KD value for HRAS to KD value for KRAS),[1]; SPR,A (a compound having 10 or more and less than 20 is denoted as A)
same,NRAS/KRAS (ratio of KD value for NRAS to KD value for KRAS),[2]; SPR,A (a compound having 10 or more and less than 20 is denoted as A)
CCC[C@H]1C(=O)N[C@@H](C2CCCC2)C(=O)N(C)CC(=O)N(C)[C@H]2C/C=C\CCN(C2=O)[C@@H](Cc2ccc(C(F)(F)F)cc2)C(=O)N(C)CC(=O)N[C@@H](CCc2ccc(C(F)(F)F)c(Cl)c2)C(=O)N2C[C@H](OCC)C[C@H]2C(=O)NC2(CC(C)(C)C2)C(=O)N(C)[C@@H](C2CCCC2)C(=O)N(C)[C@H](C(=O)N(C)C)CC(=O)N1C [PP2984],HRAS/KRAS (ratio of KD value with respect to GDP-bound HRAS wild-type protein to KD value with respect to KRAS),[1]; [3],B (a compound having 3 or more and less than 10 is denoted as B)
same,NRAS/KRAS (ratio of KD value with respect to GDP-bound NRAS wild-type protein to KD value with respect to KRAS),[2]; [3],A (a compound having 10 or more and less than 20 is denoted as A)
CCCOC[C@H]1C(=O)N[C@@H]([C@@H](C)CC)C(=O)N(C)CC(=O)N(C)[C@H]2C/C=C\CCN(C2=O)[C@@H](Cc2ccc(C(F)(F)F)cc2)C(=O)N(C)CC(=O)N[C@@H](CCc2ccc(C(F)(F)F)c(OC)c2)C(=O)N2C[C@H](OCC)C[C@H]2C(=O)NC2(CC(C)(C)C2)C(=O)N(C)[C@@H](C2CCCC2)C(=O)N(C)[C@H](C(=O)N(C)CC)CC(=O)N1C [PP1973],HRAS/KRAS (ratio of KD value for HRAS to KD value for KRAS),[1]; SPR,B (a compound having 3 or more and less than 10 is denoted as B)
same,NRAS/KRAS (ratio of KD value for NRAS to KD value for KRAS),[2]; SPR,A (a compound having 10 or more and less than 20 is denoted as A)
